Values quoted from earlier work, collected in patent publication US10449179B2, “Stable veterinary anthelmintic formulations” (DONAGHYS LIMITED, priority 2014, dated 2019).

Details: LD50 literature averages for three animal species, human equivalent, safety factor 10

**Q.** With `C[S+](C)[O-]` [DMSO, dimethylsulfoxide] as the compound, how does the “safety relative to N-methylpyrrolidone (acute oral LD50)” value read?
**A.** approximately 5 times
